Experimental data taken from publication PMC11002876, “KcsA-Kv1.x chimeras with complete ligand-binding sites provide improved predictivity for screening selective Kv1.x blockers” (The Journal of Biological Chemistry, 2024).
Where no end group is shown, it is not given here.

Columns and labels:
[1] = tested on: human Kv1.2 channel (hKv1.2); conditions: positive control applied at a concentration equivalent to its IC50; no reference given; cited from earlier work
Experimental: (§4) Voltage protocols: For measurement of Kv1.1 to 1.3 currents, voltage steps to +50 mV were applied from a holding potential of −120 mV and the peak current was measured every 15 s. For Kv1.3 currents, 15-ms-long depolarizing pulses were applied. For Kv1.1, 50-ms-long–activating stimuli were used. Kv1.2 currents were evoked by 200-ms-long pulses. […] The remaining current fraction at a given molar concentration was calculated ...

[2] = tested on: human Kv1.3 channel (hKv1.3); assay type: cell-based; conditions: TEA+ 10 mM, positive control; human lymphocytes
Experimental: (§1) Human Kv1.3 currents were recorded from activated peripheral blood mononuclear cells (see below) 3 to 4 days after activation. Heparinized human peripheral venous blood was obtained from healthy volunteers. Mononuclear cells were separated through Histopaque-1077 density gradient centrifugation. Collected cells were washed twice with Ca^2+- and Mg^2+-free Hanks’ solution containing 25 mM Hepes buffer, pH 7.4. Cells were cultured for 3 to 4 days in 24-well culture plates in a 5% CO2 incubator at 37 °C, in RPMI 1640 medium supplemented with 10% fetal calf serum (Sigma-Aldrich), 100 μg/ml penicillin, 100 μg/ml streptomycin, and 2 mM L-glutamine (density, 0.5 × 10^6 cells per ml). Phytohemagglutinin A (Sigma-Aldrich) was added to the medium at 10 μg/ml to amplify the Kv1.3 expression. Cells were washed gently twice with 2 ml of ECS for the patch-clamp experiments.
(§2) Conventional whole-cell patch-clamp electrophysiology was used to record ionic currents. Micropipettes were pulled from GC150F-7.5 borosilicate capillaries (Harvard Apparatus) with tip diameters between 0.5 and 1 μm resulting in a tip resistance of 2 to 8 MΩ in the extracellular (bath) solution. All measurements were carried out by using Axopatch 200B amplifier connected to a personal computer using Axon Digidata 1550A data acquisition hardware and Pclamp10.7 software (https://support.moleculardevices.com/s/article/Axon-pCLAMP-10-Electrophysiology-Data-Acquisition-Analysis-Software-Download-Page). The holding potential was −120 mV. Records were discarded when leak at the holding potential was >10% of peak current at the test potential. Experiments were performed at room temperature (20–24 °C). Before analysis, whole-cell current traces were corrected for ohmic leakage and digitally filtered with a three-point boxcar smoothing filter.
Solutions: all salts and components of the solutions were purchased from Sigma Aldrich. […]
Native peptides, phage-expressed peptides, and positive controls used for them were dissolved in ECS supplemented with 0.1 mg/ml bovine serum albumin (BSA; Sigma-Aldrich Hungary). Bath perfusion around the measured cell with different extracellular solutions was achieved using a gravity flow micro perfusion system using a rate of 0.5 ml/min. […]
(§3) Voltage protocols: For measurement of Kv1.1 to 1.3 currents, voltage steps to +50 mV were applied from a holding potential of −120 mV and the peak current was measured every 15 s. […] The remaining current fraction at a given molar concentration was calculated as I/I0, where I0 is the peak current in the absence and I is the peak current at equilibrium block or […] after ∼2 min perfusion by the investigated peptide/phage.

[3] = tested on: human Kv1.3 channel (hKv1.3); conditions: read-out: IC50 on Kv1.3; positive control applied at a concentration equivalent to its IC50; no reference given; cited from earlier work
Experimental: as §4

[4] = tested on: human Kv1.1 channel (hKv1.1); conditions: read-out: IC50 on Kv1.1; positive control applied at a concentration equivalent to its IC50; no reference given; cited from earlier work
Experimental: as §4

[5] = tested on: T+F chimera variant mutated at T84; assay: Phage binding to T84-mutated T+F chimera, pilot experiment; conditions: pilot experiment (not shown)
Experimental: Phage stock solutions were diluted to working concentration with phage resuspension buffer supplemented with 2 mM DDM. For protein immobilization, the following amounts were used in a final volume of 50 μl/well: wt KcsA, 0.1 μg; KcsA-Kv1.1 T-only, 0.005 μg; KcsA-Kv1.1 T+F, 0.02 μg; KcsA-Kv1.2 T-only, 0.01 μg; KcsA-Kv1.2 T+F, 0.1 μg; KcsA-Kv1.3 T-only, 0.01 μg; and KcsA-Kv1.3 T+F, 0.1 μg. Protein samples were diluted in 50 μl of storage buffer (20 mM Tris pH8.0, 300 mM KCl, 2 mM DDM) and were added to the designated wells of a Pierce Clear, 96-Well Nickel Coated Plate (15442, Thermo Fisher Scientific), then incubated for 1 h at room temperature on a horizontal shaker at 130 rpm. The plate was blocked for 1 h at room temperature with 180 μl/well TBS-BSA supplemented with 1 mM DDM. Following blocking, the wells were washed 4× with washing buffer (300 μl TBS-Tween, 0.1% v/v) using a Wellwash Versa microplate washer (Thermo Fisher Scientific); then 50 μl phage solution (in TBS-BSA-Tween, 0.1% v/v, 2 mM DDM) at determined phage concentration was added to the wells and incubated for 1 h at room temperature on a horizontal shaker. […] The light absorbance signal was read at 450 nm with Byonoy absorbance 96 plate reader (Byonoy GmbH).

[6] = tested on: human Kv1.3 channel (hKv1.3); assay: Whole-cell patch-clamp of phage-displayed toxins, hKv1.3 in human lymphocytes; assay type: cell-based; conditions: perfusion concentration; phage-displayed toxin; experimentally titrated; N = 3
Experimental: as §1, §2
Solutions: all salts and components of the solutions were purchased from Sigma Aldrich. The extracellular (bath) solution (ECS) contained 145 mM NaCl, 5 mM KCl, 2.5 mM CaCl2, 1 mM MgCl2, 10 mM Hepes, and 5.5 mM glucose (pH 7.35 with NaOH), while the intracellular (pipette) solution (ICS) contained 140 mM KF, 2 mM MgCl2, 1 mM CaCl2, 11 mM EGTA, and 10 mM Hepes (pH 7.22 with KOH). The osmolarity of the ECS and ICS were 302 mOsM.
Native peptides, phage-expressed peptides, and positive controls used for them were dissolved in ECS supplemented with 0.1 mg/ml bovine serum albumin (BSA; Sigma-Aldrich Hungary). Bath perfusion around the measured cell with different extracellular solutions was achieved using a gravity flow micro perfusion system using a rate of 0.5 ml/min. Excess fluid was removed continuously.
as §3, with “s. For Kv1.3 currents, 15-ms-long depolarizing pulses were applied. For Kv1.1, 50-ms-long–activating stimuli were used. Kv1.2 currents were evoked by 200-ms-long pulses.” for “s.”
Phage display test solutions were prepared according to routine phage display protocols ([62]). Phosphorylated and annealed oligonucleotides encoding the peptide construct were ligated into linearized pAS62 phagemid vector (https://patents.google.com/patent/WO2022144560A1/en) at a vector/insert ratio of 1:3. The final phagemid construct harbored a signal sequence followed by the peptide of interest, a linker sequence ([…]), and the C-terminal part of the P3 coat protein (amino acids: 216-424 of NP_510891.1). Chemically competent XL1-Blue E. coli cells (2022249, Agilent) were transformed with the ligation product and then streaked onto ampicillin (100 μg/ml) containing LB/Amp plates and incubated for 16 h at 37 °C.

[7] = target: T1, KcsA-Kv1.3 T-only chimera (Streptomyces lividans, UniProt P0A334, A54D/A57S/G53D/G56T/I60S/L59F/Q58G/R52A/R64D/T61S/Y62I); assay: Phage ELISA-binding assay, KcsA-Kv1.3 T-only; set-up: species or system human Kv1.3 turret in Streptomyces lividans KcsA; conditions: toxin displayed on M13 phage
T1 construct: made in house; host or cells: E. coli XL1-Blue (pQE30)
T1 sequence (P0A334 1-160 R52A/G53D/A54D/G56T/A57S/Q58G/L59F/I60S/T61S/Y62I/R64D): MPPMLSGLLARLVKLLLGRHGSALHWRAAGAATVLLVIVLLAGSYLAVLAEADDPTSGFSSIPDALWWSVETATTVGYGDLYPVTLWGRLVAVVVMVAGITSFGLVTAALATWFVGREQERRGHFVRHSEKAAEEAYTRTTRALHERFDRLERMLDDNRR
Experimental: Phage display test solutions were prepared according to routine phage display protocols ([62]). Phosphorylated and annealed oligonucleotides encoding the peptide construct were ligated into linearized pAS62 phagemid vector (https://patents.google.com/patent/WO2022144560A1/en) at a vector/insert ratio of 1:3. The final phagemid construct harbored a signal sequence followed by the peptide of interest, a linker sequence ([…]), and the C-terminal part of the P3 coat protein (amino acids: 216-424 of NP_510891.1). […] The particle concentrations of phage solutions were determined using a NanoDrop One C (Thermo Fisher Scientific) spectrophotometer. The phage particle concentration was assessed according to the formula: (A268–A320) × 5 × 10^12 particles/ml ([62]). […]
Phage stock solutions were diluted to working concentration with phage resuspension buffer supplemented with 2 mM DDM. […] Following blocking, the wells were washed 4× with washing buffer (300 μl TBS-Tween, 0.1% v/v) using a Wellwash Versa microplate washer (Thermo Fisher Scientific); then 50 μl phage solution (in TBS-BSA-Tween, 0.1% v/v, 2 mM DDM) at determined phage concentration was added to the wells and incubated for 1 h at room temperature on a horizontal shaker. […]

Molecule: charybdotoxin
- IC50 [1]: 0.014 µM

Molecule: CC[N+](CC)(CC)CC [TEA+, tetraethylammonium]
- inhibition of Kv1.3 current [2]: approximately 50%
- IC50 [3]: 10000 µM
- IC50 [4]: 300 µM

Molecule: MTX-expressing phages: MTX displayed on M13 phage (VSCTGSKDCYAPCRKQTGCPNAKCINKSCKCYGC-{GSASSATR-M13 P3 coat protein (216-424)}; not fully specified; ends and bridges not checked)
- binding to T+F chimera variant mutated at T84, in words [5]: did not diminish when T84 was mutated

Molecule: HgTX1-phage: HgTx1 fused to the P3 coat protein of M13 phage with an eight amino acid linker (TVIDVKCTSPKQCLPPCKAQFGIRAGAKCMNGKCKCYPH-{GSASSATR-M13 P3 coat protein (216-424)}; not fully specified; ends and bridges not checked)
- phage concentration giving approximate 50% block of hKv1.3 current [6]: ~1.8 x 10^12 particle/ml
- phage binding to KcsA-Kv1.3 T-only, in words [7]: weaker binding
